Assay results taken from the supplement of paper PMC10307832.

What follows are cell lines tested with CC(C)N(CCCNC(=O)Nc1ccc(C(C)(C)C)cc1)C[C@H]1O[C@@H](n2ccc3c(N)ncnc32)[C@H](O)[C@@H]1O + N=C(N)NC(=N)NCCc1ccccc1 [Phenformin] (partner 250 µM) (assay: relative viability (nuclei count vs DMSO), 5 days (fraction); higher = more cells survive). Details: first compound 0.08 µM.
Procedure, shortened: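 Each reported value is a median over duplicate plates. It expresses relative viability: treated-well nuclei count divided by vehicle-well nuclei count. Lung cancer cell lines in 1536-well plates were dosed by pin tool a day after seeding, alone with one drug or with a fixed anchor-drug dose plus five library-drug doses (not always all listed) in √10 steps, and nuclei were counted after 5 days.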

Cell Line | relative viability
HCC-15 | 0.466
NCI-H1793 | 0.396
RERF-LC-KJ | 0.384
EKVX | 0.229
LC-2-ad | 0.587
NCI-H1944 | 0.223
NCI-H1975 | 0.393
SW 1573 | 0.262
ABC-1 | 0.235
NCI-H358 | 0.291
NCI-H727 | 0.554
SK-LU-1 | 0.569

Same assay, conditions: first compound 0.253 µM

Cell Line | relative viability
NCI-H2023 | 0.427
A-427 | 0.303
NCI-H460 | 0.555
NCI-H838 | 0.394
NCI-H1734 | 0.331
NCI-H2405 | 0.324
NCI-H1395 | 0.436
201T | 0.421
NCI-H1915 | 0.388
HCC-827 | 0.383
LXF-289 | 0.556
NCI-H2347 | 0.404
NCI-H661 | 0.27
CAL-12T | 0.597
NCI-H1651 | 0.302
EPLC-272H | 0.271
NCI-H23 | 0.806

Cell Line | relative viability
NCI-H1355 | 0.444
NCI-H322M | 0.711
NCI-H1437 | 0.344
NCI-H1755 | 0.609
NCI-H2085 | 0.592
HCC-15 | 0.483
RERF-LC-KJ | 0.378
EKVX | 0.241
LC-2-ad | 0.546
NCI-H1944 | 0.195
NCI-H1975 | 0.387
SW 1573 | 0.403
ABC-1 | 0.246
NCI-H358 | 0.303
NCI-H727 | 0.461
SK-LU-1 | 0.493

Same assay, conditions: first compound 0.8 µM

Cell Line | relative viability
NCI-H2023 | 0.445
A-427 | 0.335
NCI-H460 | 0.54
NCI-H838 | 0.551
NCI-H1734 | 0.398
NCI-H2405 | 0.419
NCI-H1395 | 0.43
201T | 0.43
NCI-H1915 | 0.378
LXF-289 | 0.541
NCI-H2347 | 0.369
NCI-H661 | 0.276
CAL-12T | 0.585
NCI-H1651 | 0.295
EPLC-272H | 0.32
NCI-H23 | 0.791
NCI-H1792 | 0.223

Cell Line | relative viability
NCI-H1355 | 0.387
NCI-H322M | 0.75
NCI-H1437 | 0.276
NCI-H1755 | 0.614
NCI-H2085 | 0.816
HCC-15 | 0.431
NCI-H1793 | 0.336
RERF-LC-KJ | 0.422
EKVX | 0.223
LC-2-ad | 0.526
NCI-H1944 | 0.199
NCI-H1975 | 0.202
SW 1573 | 0.435
NCI-H358 | 0.383
NCI-H727 | 0.46
SK-LU-1 | 0.519

Same assay, conditions: first compound 2.53 µM

Cell Line | relative viability
NCI-H2023 | 0.405
A-427 | 0.364
NCI-H460 | 0.485
NCI-H838 | 0.551
NCI-H1734 | 0.4
NCI-H2405 | 0.409
NCI-H1395 | 0.438
201T | 0.421
NCI-H1915 | 0.388
HCC-827 | 0.417
LXF-289 | 0.539
NCI-H2347 | 0.488
NCI-H661 | 0.288
CAL-12T | 0.56
NCI-H1651 | 0.288
EPLC-272H | 0.296
NCI-H23 | 0.843
NCI-H1792 | 0.418

Cell Line | relative viability
NCI-H1355 | 0.48
NCI-H322M | 0.749
NCI-H1437 | 0.294
NCI-H1755 | 0.632
NCI-H2085 | 0.789
HCC-15 | 0.423
NCI-H1793 | 0.371
RERF-LC-KJ | 0.386
EKVX | 0.228
LC-2-ad | 0.6
NCI-H1944 | 0.188
NCI-H1975 | 0.393
SW 1573 | 0.391
ABC-1 | 0.266
NCI-H358 | 0.286
NCI-H727 | 0.639
SK-LU-1 | 0.56

Same assay, conditions: first compound 8 µM

Cell Line | relative viability
NCI-H2023 | 0.353
A-427 | 0.315
NCI-H460 | 0.436
NCI-H838 | 0.51
NCI-H1734 | 0.397
NCI-H2405 | 0.345
NCI-H1395 | 0.424
201T | 0.401
NCI-H1915 | 0.353
HCC-827 | 0.417
LXF-289 | 0.478
NCI-H2347 | 0.254
NCI-H661 | 0.305
CAL-12T | 0.489
NCI-H1651 | 0.35
EPLC-272H | 0.298
NCI-H23 | 0.746
NCI-H1792 | 0.472

Cell Line | relative viability
NCI-H1355 | 0.432
NCI-H322M | 0.762
NCI-H1437 | 0.309
NCI-H1755 | 0.554
NCI-H2085 | 0.631
HCC-15 | 0.407
NCI-H1793 | 0.316
RERF-LC-KJ | 0.395
EKVX | 0.202
LC-2-ad | 0.565
NCI-H1944 | 0.198
NCI-H1975 | 0.338
SW 1573 | 0.378
ABC-1 | 0.233
NCI-H358 | 0.273
NCI-H727 | 0.412
SK-LU-1 | 0.45
